The target of assay [1] is human FPR1 (Homo sapiens (Human), UniProt P21462). Put plainly: FPR1 cyclic adenosine monophosphate (cAMP) assay. The format is cell-based. Conditions: CHO cells overexpressing human FPR1; forskolin 10 µM; inhibition of cAMP production; read-out: hFPR1 cAMP EC50. The text has this:
(§1) N-formyl peptide receptors (FPRs) are a family of chemo attractant receptors that facilitate leukocyte response during inflammation. FPRs belong to the seven-transmembrane G protein-coupled receptor superfamily and are linked to inhibitory G-proteins (Gi). Three family members (FPR1, FPR2 and FPR3) have been identified in humans and are predominantly found in myeloid cells with varied distribution and have also been reported in multiple organs and tissues. After agonist binding, the FPRs activate a multitude of physiological pathways, such as intra cellular signaling transduction, Ca^2+ mobilization and transcription. The family interacts with a diverse set of ligands that includes proteins, polypeptides and fatty acid metabolites which activate both pro-inflammatory and pro-resolution downstream responses. FPR2 and FPR1 Cyclic Adenosine Monophosphate (cAMP) Assays were used to measure the activity of the compounds in this patent.
FPR2 and FPR1 Cyclic Adenosine Monophosphate (cAMP) Assays. A mixture of forskolin (5 µM final for FPR2 or 10 µM final for FPR1) and IBMX (200 µM final) were added to 384-well Proxiplates (Perkin-Elmer) pre-dotted with test compounds in DMSO (1% final) at final concentrations in the range of 0.020 nM to 100 µM. Chinese Hamster Ovary cells (CHO) overexpressing human FPR1 or human FPR2 receptors were cultured in F-12 (Ham’s) medium supplemented with 10% qualified FBS, 250 µg/ml zeocin and 300 µg/ml hygromycin (Life Technologies). Reactions were initiated by adding 2,000 human FPR2 cells per well or 4,000 human FPR1 cells per well in Dulbecco’s PBS (with calcium and magnesium) (Life Technologies) supplemented with 0.1% BSA (Perkin-Elmer). The reaction mixtures were incubated for 30 min at room temperature. The level of intracellular cAMP was determined using the HTRF HiRange cAMP assay reagent kit (Cisbio) according to manufacturer’s instruction. Solutions of cryptate conjugated anti-cAMP and d2 flurorophore-labelled cAMP were made in a supplied lysis buffer separately. Upon completion of the reaction, the cells were lysed with equal volume of the d2-cAMP solution and anti-cAMP solution. […] The potency and activity of a compound to inhibit cAMP production was then determined by fitting to a 4-parametric logistic equation from a plot of cAMP level versus compound concentrations.

Assay [2] deals with human FPR2 (Homo sapiens (Human), UniProt P25090). Put plainly: FPR2 cyclic adenosine monophosphate (cAMP) assay. It counts as cell-based. Conditions: CHO cells overexpressing human FPR2; forskolin 5 µM; inhibition of cAMP production; read-out: hFPR2 cAMP2 EC50.
Source text: as §1
FPR2 and FPR1 Cyclic Adenosine Monophosphate (cAMP) Assays. A mixture of forskolin (5 µM final for FPR2 or 10 µM final for FPR1) and IBMX (200 µM final) were added to 384-well Proxiplates (Perkin-Elmer) pre-dotted with test compounds in DMSO (1% final) at final concentrations in the range of 0.020 nM to 100 µM. Chinese Hamster Ovary cells (CHO) overexpressing human FPR1 or human FPR2 receptors were cultured in F-12 (Ham’s) medium supplemented with 10% qualified FBS, 250 µg/ml zeocin and 300 µg/ml hygromycin (Life Technologies). Reactions were initiated by adding 2,000 human FPR2 cells per well or 4,000 human FPR1 cells per well in Dulbecco’s PBS (with calcium and magnesium) (Life Technologies) supplemented with 0.1% BSA (Perkin-Elmer). The reaction mixtures were incubated for 30 min at room temperature. The level of intracellular cAMP was determined using the HTRF HiRange cAMP assay reagent kit (Cisbio) according to manufacturer’s instruction. Solutions of cryptate conjugated anti-cAMP and d2 flurorophore-labelled cAMP were made in a supplied lysis buffer separately. Upon completion of the reaction, the cells were lysed with equal volume of the d2-cAMP solution and anti-cAMP solution. After a 1-h room temperature incubation, time-resolved fluorescence intensity was measured using the Envision (Perkin-Elmer) at 400 nm excitation and dual emission at 590 nm and 665 nm. A calibration curve was constructed with an external cAMP standard at concentrations ranging from 1 µM to 0.1 pM by plotting the fluorescent intensity ratio from 665 nm emission to the intensity from the 590 nm emission against cAMP concentrations. The potency and activity of a compound to inhibit cAMP production was then determined by fitting to a 4-parametric logistic equation from a plot of cAMP level versus compound concentrations.

Molecules are shown by their SMILES. Where only a bound is given, the exact number is not on record here.

Chain of human FPR1 (P21462 whole entry): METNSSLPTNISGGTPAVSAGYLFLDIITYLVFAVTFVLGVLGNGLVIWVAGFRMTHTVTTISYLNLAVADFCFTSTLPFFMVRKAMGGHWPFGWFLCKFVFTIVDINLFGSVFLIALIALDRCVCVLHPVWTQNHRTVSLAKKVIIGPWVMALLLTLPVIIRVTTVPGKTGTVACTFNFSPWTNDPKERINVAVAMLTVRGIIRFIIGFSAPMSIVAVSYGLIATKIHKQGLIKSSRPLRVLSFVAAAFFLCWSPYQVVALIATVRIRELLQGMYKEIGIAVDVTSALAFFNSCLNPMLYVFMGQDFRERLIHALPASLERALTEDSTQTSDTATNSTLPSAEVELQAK
Chain of human FPR2 (P25090 whole entry): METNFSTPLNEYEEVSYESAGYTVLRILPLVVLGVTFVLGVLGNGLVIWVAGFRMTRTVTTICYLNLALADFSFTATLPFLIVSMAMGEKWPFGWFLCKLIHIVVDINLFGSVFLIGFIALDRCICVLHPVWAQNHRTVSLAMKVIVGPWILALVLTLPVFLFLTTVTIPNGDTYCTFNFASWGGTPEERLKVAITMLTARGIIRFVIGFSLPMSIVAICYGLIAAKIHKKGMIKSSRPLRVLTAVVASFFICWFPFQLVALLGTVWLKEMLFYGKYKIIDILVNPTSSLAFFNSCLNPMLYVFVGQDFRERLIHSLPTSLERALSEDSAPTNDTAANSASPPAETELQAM

For the molecule `CCn1cccc(N2C[C@@H](c3ccc(Cl)cc3)[C@H](NC(=O)c3ccc(OC(F)(F)F)cc3)C2=O)c1=O` [Example 67], the EC50 was determined as 4.4 nM in assay [1] and 1.8 nM in assay [2].

Take `O=C(N[C@@H]1C(=O)N(c2cccn(CC(F)F)c2=O)C[C@H]1c1ccc(Cl)cc1)c1ccc(OC(F)(F)F)cc1` [Example 69]: the EC50 was 4.2 nM in assay [1] and 1.9 nM in assay [2].

In the case of `COc1cc(N2C[C@@H]3C[C@H]2CN3C)nc(N2C(=O)[C@@H](NC(=O)c3ccc(Cl)cc3)[C@H](c3c(F)cc(OC)cc3F)[C@@H]2C)c1` [Example 70], the EC50 in assay [1] is greater than 10000 nM; in assay [2], 1.9 nM.

With `COc1cc(N2C[C@@H]3C[C@H]2CN3C)nc(N2C(=O)[C@@H](NC(=O)c3ccc(OC(F)F)cc3)[C@H](c3c(F)cc(OC)cc3F)[C@H]2C)c1` [Example 71], the values for the EC50 in assay [1] and in assay [2] were 290 nM and 1.9 nM, respectively.

Take `O=C(N[C@@H]1C(=O)N(c2cccn(CCC(F)(F)F)c2=O)C[C@H]1c1ccc(Cl)cc1)c1ccc(OC(F)F)cc1` [Example 72]: the values for the EC50 in assay [1] and in assay [2] were 5.7 nM and 1.9 nM, respectively.

On to `O=C(N[C@@H]1C(=O)N(c2cccn(CCC(F)(F)F)c2=O)C[C@H]1c1ccc(Cl)cc1)c1ccc(OC(F)(F)F)cc1` [Example 73], for which the half-maximal effective concentration (EC50) in assay [1] was 3.2 nM; in assay [2], 1.9 nM.

Regarding `COCCn1cccc(N2C(=O)[C@@H](NC(=O)c3ccc(Cl)cc3)[C@H](c3c(F)cc(OC)cc3F)[C@@H]2C)c1=O` [Example 74], the concentration for a half-maximal effect (EC50) in assay [1] was 94 nM; in assay [2] it was 1.9 nM.

In the case of `COc1ccc([C@@H]2CN(c3cccn(CCC(F)(F)F)c3=O)C(=O)[C@H]2NC(=O)c2ccc(OC(F)(F)F)cc2)c(F)c1` [Example 75], the EC50 in assay [1] worked out at 2.8 nM; in assay [2] it was 2 nM.

Turning to `COc1cc(F)c([C@H]2[C@H](NC(=O)c3ccc(OC(F)F)cc3)C(=O)N(c3ncccc3OC)[C@H]2C)c(F)c1` [Example 77], the EC50 in assay [1] is 170 nM; in assay [2] it was 2 nM.

Regarding `COCC(CN)n1cccc(N2C[C@@H](c3c(F)cc(OC)cc3F)[C@H](NC(=O)c3ccc(OC(F)(F)F)cc3)C2=O)c1=O` (stereo partly drawn) [Example 78], the half-maximal effective concentration (EC50) was 5.2 nM in assay [1] and 2 nM in assay [2].

`CCn1cccc(N2C(=O)[C@@H](NC(=O)c3ccc(OC(F)F)cc3)[C@H](c3c(F)cc(OC)cc3F)[C@@H]2C)c1=O` [Example 80]: the values for the EC50 in assay [1] and in assay [2] were 130 nM and 2.1 nM, respectively.

As to `COCCn1cccc(N2C[C@@H](c3ccc(OC)cc3F)[C@H](NC(=O)c3ccc(OC(F)F)cc3)C2=O)c1=O` [Example 81], the EC50 in assay [1] turned out to be 2.7 nM; in assay [2], 2.2 nM.

As to `CCn1cccc(N2C[C@@H](c3ccc(OC)cc3F)[C@H](NC(=O)c3ccc(OC(F)(F)F)cc3)C2=O)c1=O` [Example 82], the values for the EC50 in assay [1] and in assay [2] were 5.3 nM and 2.2 nM, respectively.

In the case of `CCn1cccc(N2C[C@@H](c3ccc(OC)cc3F)[C@H](NC(=O)c3ccc(OC(F)F)cc3)C2=O)c1=O` [Example 83], the EC50 in assay [1] was 7.6 nM; in assay [2], 2.2 nM.

With `COc1cc(F)c([C@@H]2CN(c3nc(NC4CCOC4)ccc3F)C(=O)[C@H]2NC(=O)c2ccc(OC(F)(F)F)cc2)c(F)c1` (stereo partly drawn) [Example 84], the figures for the concentration for a half-maximal effect (EC50) in assay [1] and in assay [2] were 120 nM and 2.3 nM, respectively.

Take `COc1cc(F)c([C@@H]2CN(c3cccn(CCN(C)C)c3=O)C(=O)[C@H]2NC(=O)c2ccc(OC(F)(F)F)cc2)c(F)c1` [Example 85]: the EC50 was found to be 160 nM in assay [1] and 2.3 nM in assay [2].

Regarding `COc1cc(F)c([C@@H]2CN(c3c(C)ccn(CC(F)F)c3=O)C(=O)[C@H]2NC(=O)c2ccc(OC(F)(F)F)cc2)c(F)c1` [Example 86], the EC50 in assay [1] stood at 4.1 nM; in assay [2], 2.3 nM.

Take `COc1cc(F)c([C@@H]2CN(c3ccc[nH]c3=O)C(=O)[C@H]2NC(=O)c2ccc(Cl)cc2)c(F)c1` [Example 87]: the concentration giving a half-maximal response (EC50) in assay [1] stood at 750 nM; in assay [2], 2.3 nM.

On to `COc1cc(F)c([C@@H]2CN(c3cccn(CC(C)O)c3=O)C(=O)[C@H]2NC(=O)c2ccc(OC(F)(F)F)cc2)c(F)c1` (stereo partly drawn) [Example 89], for which the EC50 in assay [1] was found to be 45 nM; in assay [2] it was 2.4 nM.

For the molecule `COc1cc(F)c([C@@H]2CN(c3c(C)ccn(CC(F)F)c3=O)C(=O)[C@H]2NC(=O)c2ccc(OC(F)F)cc2)c(F)c1` [Example 90], the figures for the EC50 in assay [1] and in assay [2] were 3.5 nM and 2.5 nM, respectively.

In the case of `COc1ccc([C@@H]2CN(c3cccn(CC(F)F)c3=O)C(=O)[C@H]2NC(=O)c2ccc(OC(F)F)cc2)cc1` [Example 91], the EC50 was 16 nM in assay [1] and 2.6 nM in assay [2].

As to `COCC(C(=O)N(C)C)n1cccc(N2C[C@@H](c3c(F)cc(OC)cc3F)[C@H](NC(=O)c3ccc(OC(F)F)cc3)C2=O)c1=O` (stereo partly drawn) [Example 92], the EC50 was 3.6 nM in assay [1] and 2.6 nM in assay [2].

Consider `CCn1cccc(N2C(=O)[C@@H](NC(=O)c3ccc(OC(F)(F)F)cc3)[C@H](c3c(F)cc(OC)cc3F)[C@@H]2C)c1=O` [Example 93], for which the EC50 in assay [1] was 68 nM; in assay [2], 2.6 nM.

In the case of `COc1cc(F)c([C@@H]2CN(c3cccn(C(F)F)c3=O)C(=O)[C@H]2NC(=O)c2ccc(Cl)cc2)c(F)c1` [Example 94], the EC50 in assay [1] amounted to 95 nM; in assay [2], 2.7 nM.

Consider `COc1cc(F)c([C@@H]2CN(c3ccc[nH]c3=O)C(=O)[C@H]2NC(=O)c2ccc(OC(F)F)cc2)c(F)c1` [Example 95], for which the results for the concentration giving a half-maximal response (EC50) in assay [1] and in assay [2] were 160 nM and 2.7 nM, respectively.

For the molecule `COc1cc(F)c([C@@H]2CN(c3cccn(CC4CC(F)(F)C4)c3=O)C(=O)[C@H]2NC(=O)c2ccc(OC(F)F)cc2)c(F)c1` [Example 96], the EC50 in assay [1] was found to be 46 nM; in assay [2], 2.7 nM.

As for `COc1cc(F)c([C@@H]2CN(c3cccn(CCN(C)C)c3=O)C(=O)[C@H]2NC(=O)c2ccc(OC(F)F)cc2)c(F)c1` [Example 97], the 50% effective concentration (EC50) in assay [1] was determined as 350 nM; in assay [2] it was 2.7 nM.

Consider `CCn1cccc(N2C[C@@H](c3c(F)cc(OC)cc3F)[C@H](NC(=O)c3ccc(Cl)cc3)C2=O)c1=O` [Example 98], for which the values for the EC50 in assay [1] and in assay [2] were 43 nM and 2.7 nM, respectively.

Turning to `COc1cc(F)c([C@@H]2CN(c3cccn(CCN4CCOCC4)c3=O)C(=O)[C@H]2NC(=O)c2ccc(OC(F)F)cc2)c(F)c1` [Example 99], the values for the EC50 in assay [1] and in assay [2] were 330 nM and 2.7 nM, respectively.

Turning to `COCCn1cccc(N2C(=O)[C@@H](NC(=O)c3ccc(OC(F)(F)F)cc3)[C@H](c3c(F)cc(OC)cc3F)[C@@H]2C)c1=O` [Example 100], the EC50 in assay [1] is 22 nM; in assay [2], 2.7 nM.

As for `O=C(N[C@@H]1C(=O)N(c2cccn(CCO)c2=O)C[C@H]1c1ccc(Cl)cc1)c1ccc(OC(F)(F)F)cc1` [Example 102], the EC50 in assay [1] is 4.7 nM; in assay [2], 2.8 nM.

As for `COc1cc(F)c([C@@H]2CN(c3cccn(CC(C)OC)c3=O)C(=O)[C@H]2NC(=O)c2ccc(OC(F)(F)F)cc2)c(F)c1` (stereo partly drawn) [Example 103], the EC50 turned out to be 1.9 nM in assay [1] and 2.8 nM in assay [2].

Turning to `COc1cc(F)c([C@@H]2CN(c3cccn(CC(C)O)c3=O)C(=O)[C@H]2NC(=O)c2ccc(OC(F)F)cc2)c(F)c1` (stereo partly drawn) [Example 104], the EC50 turned out to be 120 nM in assay [1] and 2.9 nM in assay [2].

The values are drawn from US20230348426A1, “OXOPYRROLIDINE FPR2 AGONISTS” (Bristol-Myers Squibb Company, priority 2020, published 2023).
